# Experimental data: PubChem BioAssay (NCI)
#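 How tested: cells in 96-well plates exposed to compound for 48 hours at five concentrations. Abbreviation: GI50, concentration required for 50% inhibition of growth. TGI is the concentration that stops growth completely.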
# Columns and labels:
# Experiment in all cases: NCI anticancer screen, dose series, 48 h
# [1] = tested on: ACHN renal
# [2] = tested on: HOP-62 NSCLC
# [3] = tested on: U251 CNS
# [4] = tested on: SK-MEL-2 melanoma
# [5] = tested on: NCI/ADR-RES ovarian
# [6] = tested on: SK-OV-3 ovarian
# [7] = tested on: NCI-H460 lung
# [8] = tested on: NCI-H522 lung
# [9] = tested on: OVCAR-8 ovarian
# [10] = tested on: SR leukemia
# [11] = tested on: RPMI-8226 leukemia
# [12] = tested on: MDA-MB-435
# [13] = tested on: HOP-92 NSCLC
# [14] = tested on: SF-268 CNS
# [15] = tested on: PC-3 prostate
# [16] = tested on: HCT-15 colon
# [17] = tested on: NCI-H226 lung
# [18] = tested on: LOX IMVI melanoma
# [19] = tested on: SNB-75 CNS
# [20] = tested on: HCC-2998 colon
# [21] = tested on: EKVX NSCLC
# [22] = tested on: SW-620 colon
# [23] = tested on: MDA-MB-231 breast
# [24] = tested on: CAKI-1 renal
# [25] = tested on: UACC-257 melanoma
# [26] = tested on: 786-0 renal
# [27] = tested on: M14 melanoma
# [28] = tested on: OVCAR-4 ovarian
# [29] = tested on: DU-145 prostate
# [30] = tested on: HS 578T breast
# [31] = tested on: SNB-19 CNS
# [32] = tested on: MALME-3M melanoma
# [33] = tested on: SF-539 CNS
# [34] = tested on: A498 renal
# [35] = tested on: UO-31 renal
# [36] = tested on: UACC-62 melanoma
# [37] = tested on: TK-10 renal
# [38] = tested on: MOLT-4 leukemia
# [39] = tested on: OVCAR-5 ovarian
# [40] = tested on: SN12C renal
# [41] = tested on: KM12 colon
# [42] = tested on: RXF 393 renal
# [43] = tested on: SF-295 CNS
# [44] = tested on: MCF7 breast
# [45] = tested on: HCT-116 colon
# [46] = tested on: IGROV1 ovarian
# [47] = tested on: T-47D breast
# [48] = tested on: CCRF-CEM leukemia
# [49] = tested on: K-562 leukemia
# [50] = tested on: BT-549 breast
compound,measurement,setting,value
N#C/C(=C\c1ccc(-c2ccc(F)cc2)o1)C(=O)Nc1ncc(Cc2ccc(Cl)cc2Cl)s1,GI50,[1],3.52 µM
same,TGI,[1],13.9 µM
same,GI50,[2],3.71 µM
same,TGI,[2],16.8 µM
same,GI50,[3],2.04 µM
same,TGI,[3],4.11 µM
same,GI50,[4],2.91 µM
same,TGI,[4],16 µM
same,GI50,[5],3.55 µM
same,TGI,[5],> 100 µM
same,GI50,[6],8.63 µM
same,TGI,[6],34.9 µM
same,GI50,[7],1.76 µM
same,TGI,[7],3.64 µM
same,GI50,[8],3.49 µM
same,TGI,[8],34.6 µM
same,GI50,[9],2.94 µM
same,TGI,[9],16.7 µM
same,GI50,[10],0.778 µM
same,TGI,[10],12.2 µM
same,GI50,[11],4.33 µM
same,TGI,[11],> 100 µM
same,GI50,[12],2.95 µM
same,TGI,[12],> 100 µM
same,GI50,[13],2.17 µM
same,TGI,[13],9.16 µM
same,GI50,[14],3.15 µM
same,TGI,[14],22.6 µM
same,GI50,[15],2.19 µM
same,TGI,[15],6.04 µM
same,GI50,[16],2.38 µM
same,TGI,[16],> 100 µM
same,GI50,[17],2.83 µM
same,TGI,[17],8.52 µM
same,GI50,[18],1.64 µM
same,TGI,[18],3.43 µM
same,GI50,[19],6.2 µM
same,TGI,[19],28.4 µM
same,GI50,[20],3.36 µM
same,TGI,[20],> 100 µM
same,GI50,[21],2.32 µM
same,TGI,[21],6.88 µM
same,GI50,[22],1.79 µM
same,TGI,[22],4.66 µM
same,GI50,[23],3.67 µM
same,TGI,[23],32.2 µM
same,GI50,[24],3.05 µM
same,TGI,[24],16.7 µM
same,GI50,[25],4.23 µM
same,TGI,[25],> 100 µM
same,GI50,[26],2.69 µM
same,TGI,[26],10 µM
same,GI50,[27],2.91 µM
same,TGI,[27],23.6 µM
same,GI50,[28],2.99 µM
same,TGI,[28],9.23 µM
same,GI50,[29],4.19 µM
same,TGI,[29],> 100 µM
same,GI50,[30],3.19 µM
same,TGI,[30],27.9 µM
same,GI50,[31],4.63 µM
same,TGI,[31],29.5 µM
same,GI50,[32],2.87 µM
same,TGI,[32],9.18 µM
same,GI50,[33],2.95 µM
same,TGI,[33],8.8 µM
same,GI50,[34],3.03 µM
same,TGI,[34],22 µM
same,GI50,[35],5 µM
same,TGI,[35],> 100 µM
same,GI50,[36],3.71 µM
same,TGI,[36],> 100 µM
same,GI50,[37],9.27 µM
same,TGI,[37],30 µM
same,GI50,[38],5.24 µM
same,TGI,[38],> 100 µM
same,GI50,[39],4.06 µM
same,TGI,[39],> 100 µM
same,GI50,[40],2.48 µM
same,TGI,[40],8.64 µM
same,GI50,[41],> 100 µM
same,TGI,[41],> 100 µM
same,GI50,[42],2.28 µM
same,TGI,[42],5.78 µM
same,GI50,[43],1.92 µM
same,TGI,[43],4.27 µM
same,GI50,[44],2.21 µM
same,TGI,[44],8.67 µM
same,GI50,[45],2.9 µM
same,TGI,[45],10.9 µM
same,GI50,[46],2.47 µM
same,TGI,[46],7.54 µM
same,GI50,[47],2.75 µM
same,TGI,[47],29.8 µM
same,GI50,[48],4.23 µM
same,TGI,[48],> 100 µM
same,GI50,[49],3.48 µM
same,TGI,[49],> 100 µM
same,GI50,[50],1.98 µM
same,TGI,[50],4.65 µM
